Laboratory results: patent publication US9421204B2, “Oligomer modified diaromatic substituted compounds” (priority 2010, dated 2016)
Read-outs that look alike come from different tables or passages of the source.

Tests used:
HIV-1RF = assay: Anti-HIV-1 cytoprotection assay in CEM-SS cells; assay type: cell-based; conditions: for EC50: CEM-SS cells, XTT, read-out: CEM-SS/HIV-1RF EC50; for Therapeutic Index: CEM-SS/HIV-1RF
Procedure: Cell Preparation—CEM-SS cells were passaged in T-75 flasks prior to use in the antiviral assay. On the day preceding the assay, the cells were split 1:2 to assure they were in an exponential growth phase at the time of infection. Total cell and viability quantification was performed using a hemocytometer and Trypan Blue dye exclusion. […] The cells were resuspended at 5×10^4 cells per ml in tissue culture medium and added to the drug containing microtiter plates in a volume of 50 μL.
Virus Preparation—The virus used for the assay was the lymphocyte-tropic virus strain HIV-IRF. The virus was obtained from the NIH AIDS Research and Reference Reagent Program and stock virus pools were produced in CEM-SS cells. A pretitred aliquot of virus was removed from the freezer (−80° C.) and allowed to thaw slowly to room temperature in a biological safety cabinet.
Plate Format—Each plate contains cell control wells (cells only), virus control wells (cells plus virus), drug toxicity wells (cells plus drug only), drug colorimetric control wells (drug only) as well as experimental wells (drug plus cells plus virus). Samples were tested in triplicate with eleven half-log dilutions per compound.
Efficacy and Toxicity XTT—Following incubation at 37° C. in a 5% CO2 incubator, the test plates were stained with the tetrazolium dye XTT (2,3-bis(2-methoxy-4-nitro-5-sulfophenyl)-5-[(phenylamino)carbonyl]-2H-tetrazolium hydroxide). XTT-tetrazolium is metabolized by the mitochondrial enzymes of metabolically active cells to a soluble formazan product, allowing rapid quantitative analysis of the inhibition of HIV induced cell killing by anti-HIV test substances. XTT solution was prepared daily as a stock of 1 mg/mL in RPMI1640. Phenazine methosulfate (PMS) solution was prepared at 0.15 mg/mL in PBS and stored in the dark at −20° C. XTT/PMS stock was prepared immediately before use by adding 40 μL of PMS per ml of XTT solution. Fifty microliters of XTT/PMS was added to each well of the plate and the plate was re-incubated for 4 hours at 37° C. Plates were sealed with adhesive plate sealers and shaken gently or inverted several times to mix the soluble fosmazan product and the plate was read spectrophotometrically at 450/650 nm with a Molecular Devices Vmax plate reader.
Anti-HIV-1 Cytopathic Effects Inhibition Assay Evaluations: Eight compounds were evaluated against the RF strain of HIV-1 in CEM-SS cells using a 12 concentration dose response curve.
Data Analysis—Raw data was collected from the Softmax Pro 4.6 software and imported into a Excel XLFit4 spreadsheet for analysis by four parameter curve fit calculations. Both antiviral activity and toxicity are calculated.

[1] = pKa determination (Sirius GLpKa); assay type: physicochemical; conditions: aqueous pKa, 25° C.
Procedure: The Sirius GLpKa instrument is used to determine the pKa and Log P. A blank standardization has to be completed first and passed in order to conduct the compound experiments. The solutions used by the instrument for the blank titration include water, a pH solution, and a surfactant (TRITON X-100). The TRITON X-100 was purchased commercially from Sirus. The 0.5% solution of TRITON X-100 was used in the experiment. In a 1 L volumetric flask 5 mls of TRITON X-100 is added and MILLI Q water to volume. The vessels used by the instrument were filled to ⅓ of their volume with each solution. Therefore the assay tray contains one vessel for water, pH solution, and surfactant for the blank run. The temperature of the water bath for the instrument is 25° C. The blank is calculated as an average of three “good” experiments. The “good” was denoted by a green check mark next to the assay number in the computer software. Once the blank was run successfully the instrument was ready to conduct the experiments.
The pKa has to be determined first in order to calculate the Log P. The API is used to determine the pKa needed for the Log P experiment followed by the conjugates. The base compound was first weighed into a vessel. The amount weighed for each sample was 10% of the molecular weight of the compound. The same procedure was followed for each conjugate. The vessels were placed in the assay tray of the instrument. A method had to be set up for the pKa run. The experimental parameters are entered into the computer software. These included sample weight, molecular weight, assay type (aqueous pKa), number of assays (three), and titration range (generally 3.5-12). The run was started. There are three measurements for each run that are averaged to obtain the final results from the data points collected in the calculation software. All runs were denoted as “good” by the green check mark next to the assay number.

[2] = Toxicity XTT in CEM-SS cells (cytoprotection assay); assay type: cell-based; conditions: human, CEM-SS cells, XTT; read-out: CEM-SS TC50
In short: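 CEM-SS cells in exponential growth (>95% viable) were plated with compound alone, as eleven half-log dilutions in triplicate, at 37 °C and 5% CO2. Viability was measured by XTT/PMS metabolism over 4 h, read at 450/650 nm. Toxicity was derived by four-parameter curve fitting.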

in vitro = in vitro ADME; conditions: human; for Papp A→B at 2 hours, 10 μM / Papp B→A at 2 hours, 10 μM: pH 7.4; for Papp A→B at 2 hours, 10 μM: read-out: Average Papp, A→B; for Papp B→A at 2 hours, 10 μM: read-out: Average Papp, B→A; for efflux ratio at 2 hours, 10 μM: read-out: Efflux Ratio (B→A/A→B)
Procedure: Each determination was performed in duplicate.
Vr is the volume of the receiver compartment in cm^3.
Vd is the volume of the donor compartment in cm^3.
A is the area of the cell monolayer (1.13 cm^2 for 12-well Transwell®).
CN is the nominal dosing concentration of the dosing solution in μM.
CA is the average of the nominal dosing concentration and the measured 120 minute donor concentration in μM.
Cr^final is the receiver concentration in μM at the end of the incubation period.
Cd^final is the concentration of the donor in μM at the end of the incubation period.

[3] = Human immunodeficiency virus 1, CEM-SS
[4] = Caco-2, pH 7.4, Test 1, 10 μM, read-out: Recovery (%) A→B
[5] = Caco-2, pH 7.4, Test 1, 10 μM, read-out: Recovery (%) B→A
[6] = Caco-2, pH 7.4, Test 2, 10 μM, read-out: Recovery (%) A→B
[7] = Caco-2, pH 7.4, Test 2, 10 μM, read-out: Recovery (%) B→A

| Compound | EC50 (HIV-1RF) | Therapeutic Index (HIV-1RF) | pKa1 [1] | EC50 (HIV-1RF; [3]) | CC50 [2] | Papp A→B at 2 hours, 10 μM (in vitro; Caco-2, pH 7.4, Test 1, 10 μM) | Papp B→A at 2 hours, 10 μM (in vitro; Caco-2, pH 7.4, Test 1, 10 μM) | recovery at 2 h, 10 μM (in vitro; [4]) | recovery at 2 h, 10 μM (in vitro; [5]) | efflux ratio at 2 hours, 10 μM (in vitro; Caco-2, pH 7.4, Test 1) | Papp A→B at 2 hours, 10 μM (in vitro; Caco-2, pH 7.4, Test 2, 10 μM) | Papp B→A at 2 hours, 10 μM (in vitro; Caco-2, pH 7.4, Test 2, 10 μM) | recovery at 2 h, 10 μM (in vitro; [6]) | recovery at 2 h, 10 μM (in vitro; [7]) | efflux ratio at 2 hours, 10 μM (in vitro; Caco-2, pH 7.4, Test 2) |
| --- | --- | --- | --- | --- | --- | --- | --- | --- | --- | --- | --- | --- | --- | --- | --- |
| 5-O-mPEG9-Delavirdine [mPEG9-O-Delavirdine] | 130 nM | 323.1 | 4.655 | – | – | – | – | – | – | – | – | – | – | – | – |
| COCCOCCOCCOCCOc1ccc2[nH]c(C(=O)N3CCN(c4ncccc4NC(C)C)CC3)cc2c1 [mPEG4-O-Delavirdine, 5-O-mPEG4-Delavirdine] | – | 213.8 | 4.275 | 160 nM | 34000 nM | 39.3 ×10⁻⁶ cm/s | 34.8 ×10⁻⁶ cm/s | 74% | 65% | 0.9 | – | – | – | – | – |
| COCCOCCOCCOCCOCCOCCOc1ccc2[nH]c(C(=O)N3CCN(c4ncccc4NC(C)C)CC3)cc2c1 [mPEG6-O-Delavirdine, 5-O-mPEG6-Delavirdine] | – | 26.7 | 4.447 | 840 nM | 22500 nM | 16.1 ×10⁻⁶ cm/s | 34.1 ×10⁻⁶ cm/s | 67% | 72% | 2.1 | – | – | – | – | – |
| COCCOCCOCCOc1ccc2[nH]c(C(=O)N3CCN(c4ncccc4NC(C)C)CC3)cc2c1 [mPEG3-O-Delavirdine, 5-O-mPEG3-Delavirdine] | – | 499.0 | 3.792 | 54 nM | 26900 nM | 38.4 ×10⁻⁶ cm/s | 33.9 ×10⁻⁶ cm/s | 66% | 61% | 0.9 | 41.4 ×10⁻⁶ cm/s | 29.1 ×10⁻⁶ cm/s | 95% | 101% | 0.7 |
| COCCNc1ccc2[nH]c(C(=O)N3CCN(c4ncccc4NC(C)C)CC3)cc2c1 [5-mPEG1-NH-Delavirdine, 5-mPEG-NH-Delavirdine] | – | 1083.11 | – | 47 nM | 50900 nM | – | – | – | – | – | 50.2 ×10⁻⁶ cm/s | 39.4 ×10⁻⁶ cm/s | 91% | 92% | 0.8 |
| COCCOCCOCCOCCOCCOCCOCCOCCOc1ccc2[nH]c(C(=O)N3CCN(c4ncccc4NC(C)C)CC3)cc2c1 [mPEG8-O-Delavirdine, 5-O-mPEG8-Delavirdine] | – | 144.2 | 4.667 | 360 nM | 52500 nM | 4.98 ×10⁻⁶ cm/s | 43.6 ×10⁻⁶ cm/s | 80% | 82% | 8.8 | – | – | – | – | – |
| COCCOCCNc1ccc2[nH]c(C(=O)N3CCN(c4ncccc4NC(C)C)CC3)cc2c1 [5-mPEG2-NH-Delavirdine] | – | 3266.29 | – | 17 nM | 55500 nM | – | – | – | – | – | 46.2 ×10⁻⁶ cm/s | 41.1 ×10⁻⁶ cm/s | 88% | 88% | 0.9 |
| COCCOCCOCCOCCOCCOc1ccc2[nH]c(C(=O)N3CCN(c4ncccc4NC(C)C)CC3)cc2c1 [mPEG5-O-Delavirdine, 5-O-mPEG5-Delavirdine] | – | 19.0 | 4.454 | 760 nM | 14400 nM | 29.9 ×10⁻⁶ cm/s | 39.1 ×10⁻⁶ cm/s | 71% | 65% | 1.3 | 33.3 ×10⁻⁶ cm/s | 38.9 ×10⁻⁶ cm/s | 97% | 95% | 1.2 |
| COCCOCCOCCOCCOCCOCCOCCOc1ccc2[nH]c(C(=O)N3CCN(c4ncccc4NC(C)C)CC3)cc2c1 [mPEG7-O-Delavirdine, 5-O-mPEG7-Delavirdine] | – | 76.1 | 4.683 | 470 nM | 35500 nM | 14.2 ×10⁻⁶ cm/s | 36.6 ×10⁻⁶ cm/s | 74% | 69% | 2.6 | 23.1 ×10⁻⁶ cm/s | 39.3 ×10⁻⁶ cm/s | 94% | 95% | 1.7 |
